Where two headings read alike, the source gives them in different places.
How the values were obtained:
[1] = test system: ovarian cancer cell lines; test: Cell based assay, cell viability (CellTiter-Glo), ovarian cancer cell lines; conditions: Homo sapiens; OVCAR-3 cells
How it was run: (§1)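 72-hour continuous compound exposure, 0 to 2 μM final, begun one day after seeding; endpoint is ATP-based luminescent viability.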

[2] = test system: colorectal cancer cell lines (e.g. DLD-1, HCT 116, SW620, HCT-15, HCT-8, RKO); test: Cell based assay, cell viability (CellTiter-Glo), colorectal cancer cell lines; conditions: Homo sapiens, 72 hours treatment
How it was run: as §1

[3] = DLD-1 cells, read-out: IC50, colorectal cancer cell line DLD-1
[4] = HCT 116 cells, read-out: IC50, colorectal cancer cell line HCT 116
[5] = HCT-8 cells, read-out: IC50, colorectal cancer cell line HCT-8
[6] = HCT-15 cells, read-out: IC50, colorectal cancer cell line HCT-15
[7] = HT-29 cells, read-out: IC50, colorectal cancer cell line HT-29
[8] = LoVo cells, read-out: IC50, colorectal cancer cell line LoVo
[9] = RKO cells, read-out: IC50, colorectal cancer cell line RKO
[10] = SW480 cells, read-out: IC50, colorectal cancer cell line SW480
[11] = SW-620, SW620 cells, read-out: IC50, colorectal cancer cell line SW620

IC50 [1] [nM] | IC50 [2, 3] [nM] | IC50 [2, 4] [nM] | IC50 [2, 5] [nM] | IC50 [2, 6] [nM] | IC50 [2, 7] [nM] | IC50 [2, 8] [nM] | IC50 [2, 9] [nM] | IC50 [2, 10] [nM] | IC50 [2, 11] [nM] | Compound
820 | 1380 | 1800 | 1880 | 1620 | > 10000 | > 2000 | 1030 | > 2000 | > 2000 | CC(=O)c1c([S+]([O-])Cc2ccc(I)cc2)[nH]c2c(Cl)ccc(Cl)c2c1=O (centres unmarked) [Compound 83, 3-acetyl-5,8-dichloro-2-((4-iodobenzyl)sulfinyl)quinolin-4(1H)-one]
590 | 930 | 1160 | 1300 | 1510 | > 10000 | 1960 | 1270 | 1550 | 1230 | CC(=O)c1c([S+]([O-])Cc2cccnc2)[nH]c2c(Br)ccc(Cl)c2c1=O (centres unmarked) [Compound 84, 3-acetyl-8-bromo-5-chloro-2-((pyridin-3-ylmethyl)sulfinyl)quinolin-4(1H)-one]
380 | 1090 | 860 | 1110 | 1260 | > 10000 | 1150 | 890 | 1270 | 740 | Cc1cc(C[S+]([O-])c2[nH]c3c(Cl)ccc(Cl)c3c(=O)c2C(=O)C(C)C)no1 (centres unmarked) [Compound 86, 5,8-dichloro-3-isobutyryl-2-(((5-methylisoxazol-3-yl)methyl)sulfinyl)quinolin-4(1H)-one]
860 | 1640 | 1590 | > 2000 | > 2000 | > 10000 | > 2000 | 1720 | > 2000 | 1700 | COC(=O)c1ccc(C[S+]([O-])c2[nH]c3c(Cl)ccc(Cl)c3c(=O)c2C(C)=O)o1 (centres unmarked) [Compound 89, methyl 5-(((3-acetyl-5,8-dichloro-4-oxo-1,4-dihydroquinolin-2-yl)sulfinyl)methyl)furan-2-carboxylate]
380 | 1130 | 760 | 810 | 1060 | > 10000 | 910 | 920 | 1190 | 640 | Cc1cc(C[S+]([O-])c2[nH]c3c(Br)ccc(Cl)c3c(=O)c2C(=O)C(C)C)no1 (centres unmarked) [Compound 95, 8-bromo-5-chloro-3-isobutyryl-2-(((5-methylisoxazol-3-yl)methyl)sulfinyl)quinolin-4(1H)-one]

Reference: US11464770B2, “Anticancer pharmaceutical composition” (NATIONAL CANCER CENTER, priority 2016, dated 2022)
